Experiments:
[1] = system: HCV replicon in Huh7 cells; experiment: HCV replicon cell-based assay; parameters: species or system HCV strain 1B; settings: Hepatitis C virus, Huh-7, 96 h; HCV replicon, Huh7 cells, 4 days; activity ranges; read-out: EC50
Procedure, shortened: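 Genotype 1b subgenomic replicon Huh7 cells exposed to compound 4 days at 37° C in 4% FCS, 0.5% DMSO medium. EC50 from TaqMan RT-PCR of HCV RNA, normalized to total RNA by RiboGreen; CC50 from alamar Blue fluorescence after 4 h.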

[2] = molecular target: HCV NS3/4A protease complex (Hepatitis C virus genotype 1a, UniProt P27958, C1454S/C1711G); experiment: Recombinant HCV NS3/4A protease complex FRET peptide assay (strain not stated); type: biochemical; settings: IC50, NS3/4A protease enzyme assay, strain not stated; activity ranges
Chain of HCV NS3/4A protease complex (P27958 1027-1711, stated change not applied): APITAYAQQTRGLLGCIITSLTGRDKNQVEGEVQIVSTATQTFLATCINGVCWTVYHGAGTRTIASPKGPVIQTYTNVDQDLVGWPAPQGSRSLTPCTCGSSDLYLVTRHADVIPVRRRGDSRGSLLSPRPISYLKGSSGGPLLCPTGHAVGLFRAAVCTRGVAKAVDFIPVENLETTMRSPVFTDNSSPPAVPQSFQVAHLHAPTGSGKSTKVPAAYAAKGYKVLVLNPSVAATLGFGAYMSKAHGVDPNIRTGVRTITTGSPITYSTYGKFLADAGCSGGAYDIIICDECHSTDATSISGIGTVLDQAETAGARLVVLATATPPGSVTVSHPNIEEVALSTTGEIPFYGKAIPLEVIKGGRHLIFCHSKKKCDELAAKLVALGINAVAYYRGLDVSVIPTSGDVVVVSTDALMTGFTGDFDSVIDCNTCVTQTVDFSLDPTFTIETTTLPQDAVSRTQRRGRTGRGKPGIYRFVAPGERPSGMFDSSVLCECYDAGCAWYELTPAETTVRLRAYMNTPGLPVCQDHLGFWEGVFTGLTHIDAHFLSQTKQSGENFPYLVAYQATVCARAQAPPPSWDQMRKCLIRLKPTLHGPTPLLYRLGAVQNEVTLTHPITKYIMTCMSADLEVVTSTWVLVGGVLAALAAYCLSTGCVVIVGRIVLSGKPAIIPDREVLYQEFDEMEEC
Chain of HCV NS3/4A protease complex (P27958 1027-1711, stated change not applied): as above

| SMILES | EC50 [1] [nM] | IC50 [2] [nM] |
| --- | --- | --- |
| C=C[C@@H]1C[C@]1(NC(=O)C1CC(Oc2cc(-c3ccccc3)nc3cc(OC)ccc23)CN1C(=O)[C@@H](NC(=O)OC)C(C)(C)C)C(=O)NS(=O)(=O)C1CC1 (stereo partly drawn) [Compound 113, {1S-[2S-(1R-cyclopropanesulfonylaminocarbonyl-2S-vinyl-cyclopropylcarbamoyl)-4R-(7-methoxy-2-phenyl-quinolin-4-yloxy)-pyrrolidine-1-carbonyl]-2,2-dimethyl-propyl}carbamic acid methyl ester] | < 50 | < 50 |
| C=C[C@@H]1C[C@]1(NC(=O)C1CC(Oc2cc(-c3ccccc3)nc3cc(OC)ccc23)CN1C(=O)[C@@H](NC(=O)OCc1ccccc1)C(C)(C)C)C(=O)NS(=O)(=O)C1CC1 (stereo partly drawn) [Compound 114, {1S-[2S-(1R-cyclopropanesulfonylaminocarbonyl-2S-vinyl-cyclopropylcarbamoyl)-4R-(7-methoxy-2-phenyl-quinolin-4-yloxy)-pyrrolidine-1-carbonyl]-2,2-dimethyl-propyl}-carbamic acid benzyl ester] | < 50 | < 50 |
| C=C[C@@H]1C[C@]1(NC(=O)C1CC(Oc2cc(-c3ccccc3)nc3cc(OC)ccc23)CN1C(=O)[C@@H](NC(=O)OCC)C(C)(C)C)C(=O)NS(=O)(=O)C1CC1 (stereo partly drawn) [Compound 115, {1S-[2S-(1R-cyclopropanesulfonylaminocarbonyl-2S-vinyl-cyclopropylcarbamoyl)-4R-(7-methoxy-2-phenyl-quinolin-4-yloxy)-pyrrolidine-1-carbonyl]-2,2-dimethyl-propyl}-carbamic acid ethyl ester] | < 50 | < 50 |
| C=C[C@@H]1C[C@]1(NC(=O)C1CC(Oc2cc(-c3ccccc3)nc3cc(OC)ccc23)CN1C(=O)[C@@H](NC(=O)Oc1ccccc1)C(C)(C)C)C(=O)NS(=O)(=O)C1CC1 (stereo partly drawn) [Compound 116, {1S-[2S-(1R-cyclopropanesulfonylaminocarbonyl-2S-vinyl-cyclopropylcarbamoyl)-4R-(7-methoxy-2-phenyl-quinolin-4-yloxy)-pyrrolidine-1-carbonyl]-2,2-dimethyl-propyl}-carbamic acid phenyl ester] | < 50 | < 50 |
| C=C[C@@H]1C[C@]1(NC(=O)C1CC(Oc2cc(-c3ccccc3)nc3cc(OC)ccc23)CN1C(=O)[C@@H](NS(C)(=O)=O)C(C)(C)C)C(=O)NS(=O)(=O)C1CC1 (stereo partly drawn) [Compound 117, 1-(2S-methanesulfonylamino-3,3-dimethyl-butyryl)-4R-(7-methoxy-2-phenyl-quinolin-4-yloxy)-pyrrolidine-2S-carboxylic acid (1R-cyclopropanesulfonylamino-carbonyl-2S-vinyl-cyclopropyl)-amide] | < 500 | < 50 |
| C=C[C@@H]1C[C@]1(NC(=O)C1CC(Oc2cc(-c3ccccc3)nc3cc(OC)ccc23)CN1C(=O)[C@@H](NS(=O)(=O)C1CC1)C(C)(C)C)C(=O)NS(=O)(=O)C1CC1 (stereo partly drawn) [Compound 118, 1-(2S-cyclopropanesulfonylamino-3,3-dimethyl-butyryl)-4R-(7-methoxy-2-phenyl-quinolin-4-yloxy)-pyrrolidine-2S-carboxylic acid (1R-cyclopropanesulfonylamino-carbonyl-2S-vinyl-cyclopropyl)-amide] | < 500 | < 50 |
| C=C[C@@H]1C[C@]1(NC(=O)C1CC(Oc2cc(-c3ccccc3)nc3cc(OC)ccc23)CN1C(=O)[C@@H](NC(=O)CCl)C(C)(C)C)C(=O)NS(=O)(=O)C1CC1 (stereo partly drawn) [Compound 120, 1-[2S-(2-chloro-acetylamino)-3,3-dimethyl-butyryl]-4R-(7-methoxy-2-phenyl-quinolin-4-yloxy)-pyrrolidine-2S-carboxylic acid (1R-cyclopropanesulfonylaminocarbonyl-2S-vinylcyclopropyl)-amide] | < 50 | < 50 |
| C=C[C@@H]1C[C@]1(NC(=O)C1CC(Oc2cc(-c3ccccc3)nc3cc(OC)ccc23)CN1C(=O)[C@@H](NC(=O)C(=O)OC)C(C)(C)C)C(=O)NS(=O)(=O)C1CC1 (stereo partly drawn) [Compound 121, N-{1S-[2S-(1R-cyclopropanesulfonylaminocarbonyl-2S-vinyl-cyclopropylcarbamoyl)-4R-(7-methoxy-2-phenyl-quinolin-4-yloxy)-pyrrolidine-1-carbonyl]-2,2-dimethyl-propyl}-oxalamic acid methyl ester] | < 500 | < 50 |
| C=C[C@@H]1C[C@]1(NC(=O)C1CC(Oc2cc(-c3ccccc3)nc3cc(OC)ccc23)CN1C(=O)[C@@H](NC(=O)OCCF)C(C)(C)C)C(=O)NS(=O)(=O)C1CC1 (stereo partly drawn) [Compound 122, {1S-[2S-(1R-cyclopropanesulfonylaminocarbonyl-2S-vinyl-cyclopropylcarbamoyl)-4R-(7-methoxy-2-phenyl-quinolin-4-yloxy)-pyrrolidine-1-carbonyl]-2,2-dimethyl-propyl}-carbamic acid 2-fluoroethyl ester] | < 50 | < 50 |
| C=COC(=O)N[C@H](C(=O)N1C[C@H](Oc2cc(-c3ccccc3)nc3cc(OC)ccc23)CC1C(=O)N[C@]1(C(=O)NS(=O)(=O)C2CC2)C[C@H]1C=C)C(C)(C)C (stereo partly drawn) [Compound 123, {1S-[2S-(1R-cyclopropanesulfonylaminocarbonyl-2S-vinyl-cyclopropylcarbamoyl)-4R-(7-methoxy-2-phenyl-quinolin-4-yloxy)-pyrrolidine-1-carbonyl]-2,2-dimethyl-propyl}-carbamic acid vinyl ester] | < 50 | < 50 |
| C#CCOC(=O)N[C@H](C(=O)N1C[C@H](Oc2cc(-c3ccccc3)nc3cc(OC)ccc23)CC1C(=O)N[C@]1(C(=O)NS(=O)(=O)C2CC2)C[C@H]1C=C)C(C)(C)C (stereo partly drawn) [Compound 124, {1S-[2S-(1R-cyclopropanesulfonylaminocarbonyl-2S-vinyl-cyclopropylcarbamoyl)-4R-(7-methoxy-2-phenyl-quinolin-4-yloxy)-pyrrolidine-1-carbonyl]-2,2-dimethyl-propyl}-carbamic acid prop-2-ynyl ester] | < 50 | < 50 |
| C=C[C@@H]1C[C@]1(NC(=O)C1C[C@@H](Oc2cc(-c3ccccc3)nc3cc(OC)ccc23)CN1C(=O)[C@@H](NC(=O)OCC(C)(C)C)C(C)(C)C)C(=O)NS(=O)(=O)C1CC1 (stereo partly drawn) [Compound 125, {1S-[2S-(1R-cyclopropanesulfonylaminocarbonyl-2S-vinyl-cyclopropylcarbamoyl)-4R-(7-methoxy-2-phenyl-quinolin-4-yloxy)-pyrrolidine-1-carbonyl]-2,2-dimethyl-propyl}-carbamic acid 2,2-dimethyl-propyl ester] | < 50 | < 50 |
| C=CCOC(=O)N[C@H](C(=O)N1C[C@H](Oc2cc(-c3ccccc3)nc3cc(OC)ccc23)CC1C(=O)N[C@]1(C(=O)NS(=O)(=O)C2CC2)C[C@H]1C=C)C(C)(C)C (stereo partly drawn) [Compound 126, {1S-[2S-(1R-cyclopropanesulfonylaminocarbonyl-2S-vinyl-cyclopropylcarbamoyl)-4R-(7-methoxy-2-phenyl-quinolin-4-yloxy)-pyrrolidine-1-carbonyl]-2,2-dimethyl-propyl}-carbamic acid allyl ester] | < 50 | < 50 |
| C=C[C@@H]1C[C@]1(NC(=O)C1C[C@@H](Oc2cc(-c3ccccc3)nc3cc(OC)ccc23)CN1C(=O)[C@@H](NC(=O)OCCCC)C(C)(C)C)C(=O)NS(=O)(=O)C1CC1 (stereo partly drawn) [Compound 127, {1S-[2S-(1R-cyclopropanesulfonylaminocarbonyl-2S-vinyl-cyclopropylcarbamoyl)-4R-(7-methoxy-2-phenyl-quinolin-4-yloxy)-pyrrolidine-1-carbonyl]-2,2-dimethyl-propyl}-carbamic acid butyl ester] | < 50 | < 50 |
| C=C[C@@H]1C[C@]1(NC(=O)C1C[C@@H](Oc2cc(-c3ccccc3)nc3cc(OC)ccc23)CN1C(=O)[C@@H](Nc1ccccc1[N+](=O)[O-])C(C)(C)C)C(=O)NS(=O)(=O)C1CC1 (stereo partly drawn) [Compound 128, 1-[3,3-dimethyl-2S-(2-nitrophenylamino)-butyryl]-4R-(7-methoxy-2-phenyl-quinolin-4-yloxy)-pyrrolidine-2S-carboxylic acid (1R-cyclopropanesulfonyl-aminocarbonyl-2S-vinylcyclopropyl)amide] | < 5000 | < 5000 |
| C=C[C@@H]1C[C@]1(NC(=O)C1C[C@@H](Oc2cc(-c3ccccc3)nc3cc(OC)ccc23)CN1C(=O)[C@@H](Nc1ccncc1[N+](=O)[O-])C(C)(C)C)C(=O)NS(=O)(=O)C1CC1 (stereo partly drawn) [Compound 129, 1-[3,3-dimethyl-2S-(3-nitropyridin-4-ylamino)-butyryl]-4R-(7-methoxy-2-phenylquinolin-4-yloxy)-pyrrolidine-2S-carboxylic acid (1R-cyclopropanesulfonylaminocarbonyl-2S-vinylcyclopropyl)amide] | < 50000 | < 5000 |
| C=CC1C[C@]1(NC(=O)C1CC(Oc2cc(-c3ccccc3)nc3cc(OC)ccc23)CN1C(=O)[C@@H](NC)C(C)(C)C)C(=O)NS(=O)(=O)C1CC1 (stereo partly drawn) [Compound 132, (3,3-dimethyl-2-methylamino-butyryl)-4R-(7-methoxy-2-phenyl-quinolin-4-yloxy)-pyrrolidine-2S-carboxylic acid (1R-cyclopropanesulfonylaminocarbonyl-2S-vinyl-cyclo-propyl)amide] | < 5000 | < 50 |
| COc1ccc2c(OC3C[C@@H](C(=O)NC4(C(=O)NS(=O)(=O)C5CC5)CC45CCC5)N(C(=O)[C@@H](NC(=O)OC(C)(C)C)C(C)(C)C)C3)cc(-c3ccccc3)nc2c1 (stereo partly drawn) [Compound 136, {1-[2-(1-Cyclopropanesulfonylaminocarbonyl-spiro[2.3]hex-1-ylcarbamoyl)-4-(7-methoxy-2-phenyl-quinolin-4-yloxy)-pyrrolidine-1-carbonyl]-2,2-dimethyl-propyl}-carbamic acid tert-butyl ester] | < 5000 | < 500 |
